Assay results from PubChem BioAssay (NCI).
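48-hour exposure; five concentrations; linearly interpolated endpoints. Abbreviation: GI50, concentration required for 50% inhibition of growth. TGI marks complete inhibition of growth.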

Assays:
Test in all cases: NCI-60 cell line screen, 48 h
[1] = test system: 786-0 renal
[2] = test system: A498 renal
[3] = test system: A549 NSCLC
[4] = test system: ACHN renal
[5] = test system: BT-549 breast
[6] = test system: CAKI-1 renal
[7] = test system: CCRF-CEM leukemia
[8] = test system: COLO 205 colon
[9] = test system: DU-145 prostate
[10] = test system: EKVX NSCLC
[11] = test system: HCC-2998 colon
[12] = test system: HCT-116 colon
[13] = test system: HCT-15 colon
[14] = test system: HL-60(TB) leukemia
[15] = test system: HOP-62 NSCLC
[16] = test system: HOP-92 NSCLC
[17] = test system: HS 578T breast
[18] = test system: HT29 colon
[19] = test system: IGROV1 ovarian
[20] = test system: KM12 colon
[21] = test system: LOX IMVI melanoma
[22] = test system: M14 melanoma
[23] = test system: MALME-3M melanoma
[24] = test system: MCF7 breast
[25] = test system: MDA-MB-231 breast
[26] = test system: MDA-MB-435
[27] = test system: MDA-MB-468 breast
[28] = test system: MOLT-4 leukemia
[29] = test system: NCI-H226 lung

SMILES: O=C(NN1C(=O)/C(=C/C=C/c2ccc([N+](=O)[O-])o2)SC1=S)c1ccc([N+](=O)[O-])cc1
- GI50 [1]: 247 nM
- TGI [1]: 645 nM
- GI50 [2]: 3280 nM
- TGI [2]: 10900 nM
- GI50 [3]: 1860 nM
- TGI [3]: 4090 nM
- GI50 [4]: 1030 nM
- TGI [4]: 2200 nM
- GI50 [5]: 189 nM
- TGI [5]: 489 nM
- GI50 [6]: 704 nM
- TGI [6]: 1940 nM
- GI50 [7]: 262 nM
- TGI [7]: 1050 nM
- GI50 [8]: 301 nM
- TGI [8]: 826 nM
- GI50 [9]: 936 nM
- TGI [9]: 2290 nM
- GI50 [10]: 639 nM
- TGI [10]: 1880 nM
- GI50 [11]: 389 nM
- TGI [11]: 1290 nM
- GI50 [12]: 156 nM
- TGI [12]: 332 nM
- GI50 [13]: 130 nM
- TGI [13]: 315 nM
- GI50 [14]: 1800 nM
- TGI [14]: 6810 nM
- GI50 [15]: 771 nM
- TGI [15]: 2130 nM
- GI50 [16]: 310 nM
- TGI [16]: 1210 nM
- GI50 [17]: 1750 nM
- TGI [17]: 5770 nM
- GI50 [18]: 225 nM
- TGI [18]: 513 nM
- GI50 [19]: 601 nM
- TGI [19]: 1610 nM
- GI50 [20]: 925 nM
- TGI [20]: 2420 nM
- GI50 [21]: 213 nM
- TGI [21]: 499 nM
- GI50 [22]: 189 nM
- TGI [22]: 396 nM
- GI50 [23]: 181 nM
- TGI [23]: 377 nM
- GI50 [24]: 363 nM
- TGI [24]: 1690 nM
- GI50 [25]: 185 nM
- TGI [25]: 368 nM
- GI50 [26]: 243 nM
- TGI [26]: 633 nM
- GI50 [27]: 1310 nM
- TGI [27]: 2790 nM
- GI50 [28]: 322 nM
- TGI [28]: 1940 nM
- GI50 [29]: 548 nM
- TGI [29]: 1620 nM
